Reference: patent US11534457B2, “Use of dextran sulfate” (priority 2017, dated 2022)

Test system: severe traumatic brain injury (sTBI)
Assay: sTBI in rats, brain gene expression arrays and pathway analysis (Example 9)
Type: in vivo, Male Wistar rats
Conditions: 2 days after TBI
Description: The experimental protocol used in this study was approved by the Ethical Committee of the Catholic University of Rome, according to international standards and guidelines for animal care. Male Wistar rats of 300-350 g body weight were fed with standard laboratory diet and water ad libitum in a controlled environment. As the anesthetic mixture, the animals received 35 mg/kg b.w. ketamine and 0.25 mg/kg body weight midazolam by i.p. injection. Severe traumatic brain injury (sTBI) was induced by dropping a 450 g weight from 2 m height on to the rat head that had been protected by a metal disk previously fixed on the skull, according to the “weight drop” impact acceleration model (Marmarou et al., A new model of diffuse brain injury in rats. Part I: Pathophysiology and biomechanics. J Neurosurg. 1994; 80: 291-300). […] At the end of each period of treatment, rats were anesthetized again and then immediately sacrificed.
LMW-DS (Tikomed AB) was provided at a stock concentration of 20 mg/ml and was kept in a temperature-monitored refrigerator at 4° C. LMW-DS aliquots were diluted to the appropriate dosing concentration in sterile saline prior to delivery of a single subcutaneous injection.
Three doses of LMW-DS were administered subcutaneously 30 minutes post-TBI. The animals were sacrificed at 2 days post-TBI. The animals were divided into the following subgroups:
Three doses of LMW-DS were administered subcutaneously 30 minutes post-TBI. The animals were sacrificed at 7 days post-TBI. The animals were divided into the following subgroups:
An in vivo craniectomy was performed on all animals during anesthesia. After carefully removing the rat's skull, the brain was exposed and removed with a surgical spatula and quickly dropped in RNALater and preserved at 4° C. for further processing.
RNA extraction and array processing was carried out by SourceBioscience. The arrays used were the Agilent Rat expression arrays.
Statistical analysis was carried out using the Metaboanalyst software package. Gene expression changes of 10% with a p<0.05 were regarded as significant.
Pathway analysis of the differentially regulated genes was carried out using the Ingenuity pathway analysis package. The analysis was performed with special reference to pathways and molecular processes and diseases associated with neurodegenerative disease, including dementia, Alzheimer's disease, ALS, TBI and stroke, and with scarring and fibrosis, including glaucoma and normal pressure hydrocephalus (NPH) after subarachnoid haemorrhage.

[1] = TBI + 5 mg/kg LMW-DS, relative to control

In the case of “low molecular weight dextran sulfate [LMW-DS]”, the “effect on canonical pathway Adrenomedullin Signaling pathway” value (TBI + 5 mg/kg LMW-DS) is reported as “Inhibited”, the “effect on canonical pathway NF-κ13 Signaling” value (TBI + 5 mg/kg LMW-DS) is reported as “Inhibited” and the “effect on canonical pathway Osteoarthritis Pathway” value (TBI + 5 mg/kg LMW-DS) is reported as “Inhibited”. The “effect on canonical pathway Role of NFAT in Cardiac Hypertrophy” value (TBI + 5 mg/kg LMW-DS) was “Inhibited”, the “z score, Abdominal cancer” value (TBI + 5 mg/kg LMW-DS) was −2.553 and the “z score, Abdominal carcinoma” value (TBI + 5 mg/kg LMW-DS) was −2.631. For the same substance, the “z score, Abdominal neoplasm” value (TBI + 5 mg/kg LMW-DS) was −0.927, the “z score, Apoptosis” value (TBI + 5 mg/kg LMW-DS) was 0.601 and the “z score, Behavior” value (TBI + 5 mg/kg LMW-DS) was −2.009. For the same substance, the “z score, Carcinoma” value (TBI + 5 mg/kg LMW-DS) was −2.071, the “z score, Cell death” value (TBI + 5 mg/kg LMW-DS) was 0.051 and the “z score, Cell death of antigen presenting cells” value (TBI + 5 mg/kg LMW-DS) was −0.62. For the same substance, the “z score, Cell death of immune cells” value (TBI + 5 mg/kg LMW-DS) was −1, the “z score, Cell death of tumor cell lines” value (TBI + 5 mg/kg LMW-DS) was −1.947 and the “z score, Cell movement” value (TBI + 5 mg/kg LMW-DS) was −3.723. The “z score, Cell movement of tumor cell lines” value (TBI + 5 mg/kg LMW-DS) was −2.078, the “z score, Cell proliferation of leukocyte cell lines” value (TBI + 5 mg/kg LMW-DS) was −2.754 and the “z score, Cellular homeostasis” value (TBI + 5 mg/kg LMW-DS) was −3.19. The “z score, Chemotaxis” value (TBI + 5 mg/kg LMW-DS) was −3.642, the “z score, Development of vasculature” value (TBI + 5 mg/kg LMW-DS) was −1.534 and the “z score, Digestive organ tumor” value (TBI + 5 mg/kg LMW-DS) was −1.149. The “z score, Digestive system cancer” value (TBI + 5 mg/kg LMW-DS) was −2.221, the “z score, Edema” value (TBI + 5 mg/kg LMW-DS) was 3.386 and the “z score, Epithelial neoplasm” value (TBI + 5 mg/kg LMW-DS) was −1.393. The “z score, Extracranial solid tumor” value (TBI + 5 mg/kg LMW-DS) was −0.992, the “z score, Feeding” value (TBI + 5 mg/kg LMW-DS) was −0.895 and the “z score, Growth of tumor” value (TBI + 5 mg/kg LMW-DS) was −1.233. For the same substance, the “z score, Hematologic cancer” value (TBI + 5 mg/kg LMW-DS) was −1.067, the “z score, Incidence of tumor” value (TBI + 5 mg/kg LMW-DS) was −0.731 and the “z score, Leukocyte migration” value (TBI + 5 mg/kg LMW-DS) was −2.163. For the same substance, the “z score, Leukopoiesis” value (TBI + 5 mg/kg LMW-DS) was −3.549, the “z score, Lymphocyte homeostasis” value (TBI + 5 mg/kg LMW-DS) was −2.94 and the “z score, Lymphocytic cancer” value (TBI + 5 mg/kg LMW-DS) was −0.48. For the same substance, the “z score, Lymphocytic neoplasm” value (TBI + 5 mg/kg LMW-DS) was −0.48, the “z score, Lymphopoiesis” value (TBI + 5 mg/kg LMW-DS) was −3.105 and the “z score, Lymphoproliferative disorder” value (TBI + 5 mg/kg LMW-DS) was −0.48. For the same substance, the “z score, Malignant solid tumor” value (TBI + 5 mg/kg LMW-DS) was −1.492, the “z score, Metabolism of hormone” value (TBI + 5 mg/kg LMW-DS) was −1.632 and the “z score, Migration of cells” value (TBI + 5 mg/kg LMW-DS) was −3.087. The “z score, Necrosis” value (TBI + 5 mg/kg LMW-DS) was −1.503, the “z score, Neoplasia of leukocytes” value (TBI + 5 mg/kg LMW-DS) was −0.48 and the “z score, Non-melanoma solid tumor” value (TBI + 5 mg/kg LMW-DS) was −1.249. The “z score, Proliferation of hematopoietic progenitor cells” value (TBI + 5 mg/kg LMW-DS) was −2.951, the “z score, Quantity of cells” value (TBI + 5 mg/kg LMW-DS) was −3.092 and the “z score, Quantity of epithelial tissue” value (TBI + 5 mg/kg LMW-DS) was −0.028. The “z score, Quantity of neuroglia” value (TBI + 5 mg/kg LMW-DS) was −1.446, the “z score, Resorption of bone” value (TBI + 5 mg/kg LMW-DS) was −0.478 and the “z score, Secretion of molecule” value (TBI + 5 mg/kg LMW-DS) was 1.634. The “z score, Synthesis of hormone” value (TBI + 5 mg/kg LMW-DS) was −1.632, the “z score, Transport of molecule” value (TBI + 5 mg/kg LMW-DS) was 0.248 and the “z score, Vasculogenesis” value (TBI + 5 mg/kg LMW-DS) was −2.274. The “z score, canonical pathway Adrenomedullin Signaling pathway” value [1] was −2.236, the “z score, canonical pathway NF-κb Signaling” value [1] was −2 and the “z score, canonical pathway Osteoarthritis Pathway” value [1] was −2.646. The “z score, canonical pathway Role of NFAT in Cardiac Hypertrophy” value [1] was −1.63, the “z score, Apoptosis” value (TBI + 15 mg/kg LMW-DS) was −0.502 and the “z score, Apoptosis of tumor cell lines” value (TBI + 15 mg/kg LMW-DS) was 0.09. For the same substance, the “z score, Behavior” value (TBI + 15 mg/kg LMW-DS) was −0.139, the “z score, Cell death” value (TBI + 15 mg/kg LMW-DS) was −0.141 and the “z score, Necrosis” value (TBI + 15 mg/kg LMW-DS) was −0.477. The “z score, Quantity of blood cells” value (TBI + 15 mg/kg LMW-DS) was −0.34, the “z score, Quantity of cells” value (TBI + 15 mg/kg LMW-DS) was −0.797 and the “z score, Quantity of lymphocytes” value (TBI + 15 mg/kg LMW-DS) was −0.943. The “Diseases or functions annotation: Abdominal cancer” value (TBI + 1 mg/kg LMW-DS) was “Inhibited”, the “Diseases or functions annotation: Abdominal carcinoma” value (TBI + 1 mg/kg LMW-DS) was “Inhibited” and the “Diseases or functions annotation: Abdominal neoplasm” value (TBI + 1 mg/kg LMW-DS) was “Inhibited”. For the same substance, the “Diseases or functions annotation: Activation of blood cells” value (TBI + 1 mg/kg LMW-DS) was “Activated”, the “Diseases or functions annotation: Activation of cells” value (TBI + 1 mg/kg LMW-DS) was “Activated” and the “Diseases or functions annotation: Activation of leukocytes” value (TBI + 1 mg/kg LMW-DS) was “Activated”. For the same substance, the “Diseases or functions annotation: Activation of lymphocytes” value (TBI + 1 mg/kg LMW-DS) was “Inhibited”, the “Diseases or functions annotation: Adhesion of tumor cell lines” value (TBI + 1 mg/kg LMW-DS) was “Activated” and the “Diseases or functions annotation: Apoptosis” value (TBI + 1 mg/kg LMW-DS) was “Inhibited”. For the same substance, the “Diseases or functions annotation: Apoptosis of muscle cells” value (TBI + 1 mg/kg LMW-DS) was “Activated”, the “Diseases or functions annotation: Behavior” value (TBI + 1 mg/kg LMW-DS) was “Activated” and the “Diseases or functions annotation: Binding of tumor cell lines” value (TBI + 1 mg/kg LMW-DS) was “Activated”. For the same substance, the “Diseases or functions annotation: Carcinoma” value (TBI + 1 mg/kg LMW-DS) was “Inhibited”, the “Diseases or functions annotation: Cell death” value (TBI + 1 mg/kg LMW-DS) was “Inhibited” and the “Diseases or functions annotation: Cell death of blood cells” value (TBI + 1 mg/kg LMW-DS) was “Activated”. For the same substance, the “Diseases or functions annotation: Cell death of immune cells” value (TBI + 1 mg/kg LMW-DS) was “Activated”, the “Diseases or functions annotation: Cell movement” value (TBI + 1 mg/kg LMW-DS) was “Activated” and the “Diseases or functions annotation: Cell movement of muscle cells” value (TBI + 1 mg/kg LMW-DS) was “Inhibited”. The “Diseases or functions annotation: Cell movement of vascular smooth muscle cells” value (TBI + 1 mg/kg LMW-DS) was “Inhibited”, the “Diseases or functions annotation: Cell proliferation of T lymphocytes” value (TBI + 1 mg/kg LMW-DS) was “Inhibited” and the “Diseases or functions annotation: Cellular homeostasis” value (TBI + 1 mg/kg LMW-DS) was “Activated”. For the same substance, the “Diseases or functions annotation: Development of connective tissue cells” value (TBI + 1 mg/kg LMW-DS) was “Inhibited”, the “Diseases or functions annotation: Differentiation of bone cells” value (TBI + 1 mg/kg LMW-DS) was “Inhibited” and the “Diseases or functions annotation: Differentiation of connective tissue cells” value (TBI + 1 mg/kg LMW-DS) was “Activated”. The “Diseases or functions annotation: Differentiation of hematopoietic progenitor cells” value (TBI + 1 mg/kg LMW-DS) was “Activated”, the “Diseases or functions annotation: Differentiation of osteoclasts” value (TBI + 1 mg/kg LMW-DS) was “Inhibited” and the “Diseases or functions annotation: Digestive organ tumor” value (TBI + 1 mg/kg LMW-DS) was “Inhibited”. The “Diseases or functions annotation: Experimentally-induced arthritis” value (TBI + 1 mg/kg LMW-DS) was “Inhibited”, the “Diseases or functions annotation: Extracranial solid tumor” value (TBI + 1 mg/kg LMW-DS) was “Activated” and the “Diseases or functions annotation: Genital tumor” value (TBI + 1 mg/kg LMW-DS) was “Activated”. For the same substance, the “Diseases or functions annotation: Incidence of tumor” value (TBI + 1 mg/kg LMW-DS) was “Inhibited”, the “Diseases or functions annotation: Inflammation of absolute anatomical region” value (TBI + 1 mg/kg LMW-DS) was “Inhibited” and the “Diseases or functions annotation: Inflammation of body cavity” value (TBI + 1 mg/kg LMW-DS) was “Inhibited”. The “Diseases or functions annotation: Inflammation of joint” value (TBI + 1 mg/kg LMW-DS) was “Inhibited”, the “Diseases or functions annotation: Inflammation of organ” value (TBI + 1 mg/kg LMW-DS) was “Inhibited” and the “Diseases or functions annotation: Inflammatory response” value (TBI + 1 mg/kg LMW-DS) was “Activated”. For the same substance, the “Diseases or functions annotation: Interaction of mononuclear leukocytes” value (TBI + 1 mg/kg LMW-DS) was “Activated”, the “Diseases or functions annotation: Leukocyte migration” value (TBI + 1 mg/kg LMW-DS) was “Activated” and the “Diseases or functions annotation: Leukopoiesis” value (TBI + 1 mg/kg LMW-DS) was “Activated”. For the same substance, the “Diseases or functions annotation: Lymphopoiesis” value (TBI + 1 mg/kg LMW-DS) was “Activated” and the “Diseases or functions annotation: Malignant solid tumor” value (TBI + 1 mg/kg LMW-DS) was “Inhibited”.
